Measured values: ChEMBL document CHEMBL3832042, “DailyMed|setid=5d4f90d4-e535-4681-a863-3d774a2064e6 | ANASTROZOLE - anastrozole tablet|PD-Rx Pharmaceuticals, Inc”
Several values for one entry are separate records, joined by “and”; a condition that tells them apart may be missing. Identical values can stand only once.

Columns and labels:
Homo sapiens = assay: Evaluation of pharmacokinetic parameters for Anastrazole following multiple oral administration of Anastrazole to Caucasian and to Japanese female subjects.; format: ADME, organism-based; conditions: in vivo, dose 1 mg, dosed compound id 24, dosed compound name ANASTROZOLE, gender female, regimen every 24h, study dosing duration 16 days, tissue Plasma
[1] = Evaluation of pharmacokinetic parameters for Anastrazole following single oral administration of Anastrazole to subjects under fatsed and fed conditions.; conditions: human, in vivo

Question: With `CC(C)(C#N)c1cc(Cn2cncn2)cc(C(C)(C)C#N)c1` [ANASTROZOLE] as the compound, how does the Cmin ss (Homo sapiens) read?
Answer: The Cmin ss was 30.4 ng/mL and 25.7 ng/mL.

Question: What about the half-life [1] of the same compound?
Answer: Its half-life is 3000 min.
